Here are results for four compounds from patent publication US8946409B2, “Polycyclic β lactam derivatives for the treatment of cancer” (Board of Regents, The University of Texas System, priority 2011, dated 2015).

Series [1] has as its system HT-29. The series is described as follows: MTT assay, HT-29 cells. The class given is cell-based, human. The settings on record: HT-29, colon carcinoma, 72 hours, Table 1, read-out: IC50 in Cancer Cells Using the MTT Assay. The procedure:
(§1) 8×10^3 cells/well were plated in a […]. Stock solutions of the agents were made in DMSO. Dilution of the compounds were in media with 10% FBS (fetal bovine serum). The cells were incubated in the drug for 72 hours and cell viability was determined by the MTT assay. IC50 was then calculated.
(Formazan colour is commonly taken as a measure of viable cells.)

Series [2] has as its system MDA-231. The series is described as follows: MTT assay, MDA-231 cells. The class given is cell-based, human. The conditions noted are these: MDA-231, breast cancer, 72 hours, Table 1, read-out: IC50 in Cancer Cells Using the MTT Assay. The procedure:
as §1

Series [3] relates to BRO. The series is described as follows: MTT assay, BRO cells. Type of series: cell-based, human. The settings on record: melanoma, 72 hours, Table 1, read-out: IC50 in Cancer Cells Using the MTT Assay. As for the experimental part:
as §1

Series [4] deals with A-549. The series is described as follows: MTT assay, A-549 cells. The class given is cell-based, human. The conditions noted are these: A-549, Non-Small Cell Carcinoma of the Lung, 72 hours, Table 1, read-out: IC50 in Cancer Cells Using the MTT Assay. The procedure: as §1
The test system of series [5] is PANC-1. The series is described as follows: MTT assay, PANC-1 cells. The class given is cell-based, human. The procedure: as §1
The test system of series [6] is PC-3. The series can be described thus: MTT assay, PC-3 cells. The class given is cell-based, human. The settings on record: PC-3, carcinoma of the prostate, 72 hours, Table 1, read-out: IC50 in Cancer Cells Using the MTT Assay. As for the experimental part: as §1
Series [7] can be described thus: Body weight of tumor-bearing mice during treatment. The conditions noted are these: determined weekly through the treatment regimen. Type of series: in vivo, athymic nude mice. As for the experimental part:
(§2) The anti-tumorigenic activity of TX-262 was assessed in 4 week old male athymic nude mice by using a luciferase gene, stably-expressing, highly aggressive line of human pancreatic cells, MPanc96. 2×10^5/50 ul luciferase-labeled MPanc96 cells were injected directly into the mouse pancreas. […] Bioluminescent imagining was utilized to estimate tumor volume and location and mice were then divided into two groups such that the mean tumor size was equal between the groups. For the next five weeks mice in the control group were treated with DMSO only; while Group II mice were treated Monday through Friday as follows: 100 mg/K bw i.p. at zero time [AM] and a booster dose of 25 mg/K bw i.p. 90 minutes later. Each week body weight and mortality were recorded and tumor growth was monitored by bioluminescence imaging.

The subject of series [8] is CoLo35FG. The series is described as follows: MTT assay, CoLo35FG cells. The class given is cell-based. The settings on record: Homo sapiens, Table 2, read-out: IC50 against Human Pancreatic Cancer Lines Using the MTT Assay. As for the experimental part:
as §1

Series [9] concerns SW-1990. The series is described as follows: MTT assay, SW-1990 cells. The class given is cell-based. The settings on record: Homo sapiens, SW1990, Table 2, read-out: IC50 against Human Pancreatic Cancer Lines Using the MTT Assay. As for the experimental part:
as §1

Series [10] concerns Pan02.03. The series is described as follows: MTT assay, Pan02.03 cells. Type of series: cell-based. The settings on record: Homo sapiens, Table 2, read-out: IC50 against Human Pancreatic Cancer Lines Using the MTT Assay. As for the experimental part: as §1
The subject of series [11] is Miapaca-2. The series is described as follows: MTT assay, Miapaca-2 cells. Type of series: cell-based, human. The conditions noted are these: for IC50: Homo sapiens, MIA PaCa-2, Miapaca-2, Table 2, read-out: IC50 against Human Pancreatic Cancer Lines Using the MTT Assay. The procedure: as §1
The test system of series [12] is ASCP-1. The series can be described thus: MTT assay, ASCP-1 cells. Type of series: cell-based. The conditions noted are these: Homo sapiens, Table 2, read-out: IC50 against Human Pancreatic Cancer Lines Using the MTT Assay. As for the experimental part:
as §1

Series [13] concerns MPanc96 cells. The series is described as follows: In vivo anti-tumorigenic activity, luciferase-labeled MPanc96 cells injected into mouse pancreas. Also noted: species or system athymic nude mice. The procedure: as §2
Bioluminescence imaging utilized a cryogenically cooled image system coupled to a data acquisition computer running LivingImage Software [Xenogen Corp., Alameda Calif.]. Prior to imaging, the mice were anesthetized in an acrylic chamber using 1.5% isofluoroane/air mixture and injected i.p. with 40 mg/ml of luciferin potassium salt in PBS at a dose of 150 mg/K bw.
A digital grayscale animal image was acquired followed by acquisition and overlay of a pseudo color image representing the spacial distribution of detected photons emerging from active luciferase within the mouse. […]

Series [14] concerns BXPC-3. The series is described as follows: MTT assay, BXPC-3 cells. Type of series: cell-based. The settings on record: Homo sapiens, Table 2, read-out: IC50 against Human Pancreatic Cancer Lines Using the MTT Assay. As for the experimental part:
as §1

Where [15] appears, read: PANC-1, pancreatic cancer, 72 hours, Table 1, read-out: IC50 in Cancer Cells Using the MTT Assay.
Where [16] appears, read: Homo sapiens, PANC-1, PANC-1, Table 2 (average of runs), read-out: IC50 against Human Pancreatic Cancer Lines Using the MTT Assay.

Where two headings read alike, the source gives them in different places.

As for `N.N.[Cl][Pt][Cl]` [Cisplatin, cisplatin], the IC50 in [1] is 17000 nM; in series [2], 10100 nM; in [3], 5700 nM; in [4], more than 100000 nM; in series [5] (setting [15]), more than 100000 nM; in series [6], 2100 nM.

On to `CN1CCN(C(=O)CCC(=O)Nc2cc3c4ccccc4ccc3c3ccccc23)CC1` [Compound 1b, 1-N-6′-Chrysenyl-4′-4-N-methylpiperazine-butane-1,4-dicarboxyamide], for which the half-maximal inhibitory concentration (IC50) was 16700 nM in series [1]; 12200 nM in series [2]; 33600 nM in series [3]; more than 100000 nM in [4]; more than 100000 nM in series [5] (setting [15]); 27300 nM in series [6].

As to `CS(=O)(=O)O[C@H]1C(=O)N(c2cc3c4ccccc4ccc3c3ccccc23)C1c1ccccn1` (stereo partly drawn) [Compound 12, (3R)-1-(chrysen-6-yl)-2-oxo-4-(pyridin-2-yl)azetidin-3-yl methanesulfonate], the “Weights of mice, treated versus control” value in series [7] is “No significant differences”. The half-maximal inhibitory concentration (IC50) in series [1] (Homo sapiens) came to 360 nM; in [8] it was 2700 nM; in series [9], 1300 nM; in series [2] (Homo sapiens, MDA-MB-231), 430 nM; in [10], 390 nM; in series [3] (Homo sapiens), 640 nM. For the same compound, the IC50 in [4] (Homo sapiens, A549) was 960 nM; in series [11], 12000 nM; in [12] it was 1500 nM; in series [5] (Homo sapiens, PANC-1, 72 h, PANC-1, pancreatic cancer, 72 hours, Table 1, read-out: IC50 in Cancer Cells Using the MTT Assay), 430 nM; in [5] (setting [16]), less than 1000 nM; in series [5] (PANC-1, Table 2 (average of runs), read-out: IC50 against Human Pancreatic Cancer Lines Using the MTT Assay) it was 750 nM. The IC50 in [6] (Homo sapiens) stood at 510 nM; in series [14] it was 430 nM. The “Effective concentration relative to the concentration required by GEM” value in series [11] (GEM-resistant line Miapaca-2) is listed as “approximately one-half”. Besides, the “Viable tumor mass relative to that in control mice” value in [13] (at 5 weeks, 100 mg/K bw i.p. plus 25 mg/K bw i.p. 90 minutes later, Monday through Friday, bioluminescence imaging) is “approximately 33%”. Besides, the “Surviving (viable) mice” value in series [13] (at 6 weeks, control mice 20%) is 80%.

With `Nc1ccn([C@@H]2O[C@H](CO)[C@@H](O)C2(F)F)c(=O)n1` [GEM, gemcitabine], the concentration for half-maximal inhibition (IC50) was 400 nM in [9]; 150 nM in series [10]; 25700 nM in series [11]; 100 nM in series [12]; more than 300000 nM in [5] (setting [16]); 300 nM in [14]. For the same compound, the “IC50 against Human Pancreatic Cancer Lines Using the MTT Assay” value in [5] (PANC-1, Table 2 (average of runs)) is “inactive”.

One may read the IC50 as the midpoint of a concentration-inhibition curve.
